The nature of data set [1]: Antiproliferative activity against African green monkey Vero cells assessed as reduction in cell viability at 100 uM after 48 hrs by SRB assay. Type of data set: cell-based. The settings on record: chlorocebus sabaeus. For orientation: The SRB assay estimates cell density from bound dye.
Data set [2] addresses Urease (Canavalia ensiformis, UniProt P07374). The data set can be described thus: Inhibition of Jack bean urease assessed as production of ammonia after 30 mins by indophenol method.
Data set [3] has as its system NCI-H157. The data set can be described thus: Antiproliferative activity against human NCI-H157 cells assessed as cell growth inhibition after 48 hrs by SRB assay. Type of data set: functional, cell-based. The settings on record: NCI-H157, 48 h.
The target of data set [4] is Urease (Canavalia ensiformis) (UniProt P07374). The data set can be described thus: Inhibition of Jack bean urease assessed as production of ammonia at 10 mM after 30 mins by indophenol method.
Urease (Canavalia ensiformis), sequence (P07374 whole entry, looked up): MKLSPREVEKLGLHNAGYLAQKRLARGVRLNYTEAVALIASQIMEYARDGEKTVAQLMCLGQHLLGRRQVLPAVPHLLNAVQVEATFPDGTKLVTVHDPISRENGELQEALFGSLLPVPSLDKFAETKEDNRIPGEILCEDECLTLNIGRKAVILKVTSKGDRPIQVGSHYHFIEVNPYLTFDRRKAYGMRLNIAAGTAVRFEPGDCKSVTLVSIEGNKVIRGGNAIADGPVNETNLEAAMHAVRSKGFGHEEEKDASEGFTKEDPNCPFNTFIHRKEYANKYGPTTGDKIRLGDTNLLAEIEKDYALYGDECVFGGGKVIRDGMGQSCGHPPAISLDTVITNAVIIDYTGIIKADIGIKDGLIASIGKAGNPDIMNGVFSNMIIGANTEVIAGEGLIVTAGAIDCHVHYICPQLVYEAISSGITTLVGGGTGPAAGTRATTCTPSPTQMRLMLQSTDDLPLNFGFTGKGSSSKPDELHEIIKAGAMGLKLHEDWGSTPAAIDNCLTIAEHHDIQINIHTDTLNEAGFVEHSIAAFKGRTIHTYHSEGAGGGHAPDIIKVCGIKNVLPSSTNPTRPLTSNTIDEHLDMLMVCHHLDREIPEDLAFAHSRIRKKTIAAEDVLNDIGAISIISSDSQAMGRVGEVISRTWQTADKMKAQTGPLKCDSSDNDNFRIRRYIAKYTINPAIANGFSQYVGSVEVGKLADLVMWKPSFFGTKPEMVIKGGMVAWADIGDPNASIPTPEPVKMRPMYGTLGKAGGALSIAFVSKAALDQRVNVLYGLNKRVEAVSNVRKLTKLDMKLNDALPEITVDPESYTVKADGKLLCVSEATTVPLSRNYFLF

Some results are limits rather than exact numbers.

Urease, sequence (P07374 whole entry): as the sequence (P07374 whole entry, looked up) above

For orientation: inhibition means the drop in the measured response relative to a control, in per cent. For orientation: IC50 means the point on the concentration scale where inhibition reaches its midpoint. As for `Cc1ccc(/N=C2\C(=O)Nc3ccc([N+](=O)[O-])cc32)cc1/N=C1\C(=O)Nc2ccc([N+](=O)[O-])cc21`, the inhibition at 48 h, 100 µM in data set [1] was 10.9%. For the same compound, the IC50 turned out to be 5.86 µM in data set [2] and 3.73 µM in data set [3]. Also, the inhibition in data set [4] was above 50%.

Regarding `Cc1ccc(/N=C2\C(=O)Nc3ccc(Cl)cc32)cc1/N=C1\C(=O)Nc2ccc(Cl)cc21`, in data set [1], the inhibition at 48 h, 100 µM is 18.5%. Further, the figures for the IC50 in data set [2] and in data set [3] were 0.11 µM and 2.56 µM, respectively. In addition, in data set [4], the inhibition was above 50%.

As for `Cc1ccc2c(c1)/C(=N/c1ccc(C)c(/N=C3\C(=O)Nc4ccc(C)cc43)c1)C(=O)N2`, the inhibition at 48 h, 100 µM in data set [1] is 13.4%. Besides, the IC50 in data set [2] is 0.34 µM; in data set [3], 3.01 µM. Moreover, the inhibition in data set [4] is above 50%.

`Cc1ccc(/N=C2\C(=O)Nc3ccc(Br)cc32)cc1/N=C1\C(=O)Nc2ccc(Br)cc21`: in data set [1], the inhibition at 48 h, 100 µM came out at 18.7%. Moreover, the IC50 is 0.04 µM in data set [2] and 2.32 µM in data set [3]. Moreover, the inhibition in data set [4] was above 50%.

As to `Cc1ccc(/N=C2\C(=O)Nc3ccc(S(=O)(=O)O)cc32)cc1/N=C1\C(=O)Nc2ccc(S(=O)(=O)O)cc21`, in data set [1], the inhibition at 48 h, 100 µM is 11.7%. Besides, the IC50 in data set [2] was found to be 25.2 µM; in data set [3], 3.88 µM. Also, in data set [4], the inhibition was above 50%.

On to `CC[C@]1(O)C[C@H]2CN(CCc3c([nH]c4ccccc34)[C@@](C(=O)OC)(c3cc4c(cc3OC)N(C=O)[C@H]3[C@@](O)(C(=O)OC)[C@H](OC(C)=O)[C@]5(CC)C=CCN6CC[C@]43[C@@H]65)C2)C1` [VINCRISTINE], for which the inhibition at 48 h, 100 µM in data set [1] worked out at 16.8%.

For `Cc1ccc(/N=C2\C(=O)Nc3ccc(F)cc32)cc1/N=C1\C(=O)Nc2ccc(F)cc21`, the inhibition at 48 h, 100 µM in data set [1] was determined as 22.1%. Moreover, the IC50 was 1.65 µM in data set [2] and 2.99 µM in data set [3]. In addition, in data set [4], the inhibition was above 50%.

Take `Cc1ccc(/N=C2\C(=O)Nc3ccccc32)cc1/N=C1\C(=O)Nc2ccccc21`: in data set [1], the inhibition at 48 h, 100 µM was 23.6%. Also, the half-maximal inhibitory concentration (IC50) turned out to be 1.15 µM in data set [2] and 3.76 µM in data set [3]. Also, the inhibition in data set [4] is above 50%.

(Values after ChEMBL document CHEMBL3817741, “Synthesis, cytotoxic and urease inhibitory activities of some novel isatin-derived bis-Schiff bases and their copper(ii) complexes” (Medchemcomm, 2016).)
